Data from patent US6479531B1, “Gastrin and cholecystokinin receptor ligands” (James Black Foundation Limited, priority 1998, dated 2002).

Experiments:
[1] = biological target: T1, gastrin receptor (Rattus norvegicus, UniProt P30553); assay: gastrin antagonist activity in immature rat stomach assay (pentagastrin dose-response, acid secretion); details: isolated immature rat stomach, cumulative pentagastrin dose-response curves, read-out: Gastrin pKb (converted)
T1 construct: The stomach was excised and flushed with ca. 1 ml of unbuffered physiological saline solution; from tissue; host or cells: isolated whole stomach of immature rats (ca. 21 days old)
T1 sequence (P30553 1-452): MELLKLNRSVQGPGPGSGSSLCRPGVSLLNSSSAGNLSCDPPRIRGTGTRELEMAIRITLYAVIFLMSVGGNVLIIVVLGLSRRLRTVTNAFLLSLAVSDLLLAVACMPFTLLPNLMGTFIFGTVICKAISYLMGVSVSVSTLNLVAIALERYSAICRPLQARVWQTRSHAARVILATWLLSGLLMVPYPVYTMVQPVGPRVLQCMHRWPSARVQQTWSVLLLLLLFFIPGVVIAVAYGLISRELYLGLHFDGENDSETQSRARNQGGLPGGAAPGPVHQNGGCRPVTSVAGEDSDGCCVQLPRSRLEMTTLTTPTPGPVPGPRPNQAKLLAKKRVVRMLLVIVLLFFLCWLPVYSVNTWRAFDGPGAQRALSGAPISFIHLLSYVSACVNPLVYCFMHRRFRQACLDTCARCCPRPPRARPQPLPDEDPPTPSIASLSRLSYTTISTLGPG
In short: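 Isolated, lumen-perfused stomach from immature rats (33-50 g, ca. 21 days) in a 37° organ bath with 3×10^−8 M 5-methylfurmethide, gassed 95% O2/5% CO2. Compound added serosally after 120 min stabilisation; cumulative pentagastrin dose-response curves begun 60 min later, acid secretion followed by perfusate pH.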

[2] = biological target: T2, CCKB receptor (Mus musculus, UniProt P56481); assay: CCKB receptor radioligand binding assay in mouse cortical membranes; details: [125I]-CCK8(S) 200 pM, 150 min at 21±3°, read-out: CCKB pKi (converted)
T2 construct: The whole brains from male mice (CD1 22-25 g; Charles River) were removed; from tissue; host or cells: cerebral cortex membranes of male CD1 mice
T2 sequence (P56481 1-453): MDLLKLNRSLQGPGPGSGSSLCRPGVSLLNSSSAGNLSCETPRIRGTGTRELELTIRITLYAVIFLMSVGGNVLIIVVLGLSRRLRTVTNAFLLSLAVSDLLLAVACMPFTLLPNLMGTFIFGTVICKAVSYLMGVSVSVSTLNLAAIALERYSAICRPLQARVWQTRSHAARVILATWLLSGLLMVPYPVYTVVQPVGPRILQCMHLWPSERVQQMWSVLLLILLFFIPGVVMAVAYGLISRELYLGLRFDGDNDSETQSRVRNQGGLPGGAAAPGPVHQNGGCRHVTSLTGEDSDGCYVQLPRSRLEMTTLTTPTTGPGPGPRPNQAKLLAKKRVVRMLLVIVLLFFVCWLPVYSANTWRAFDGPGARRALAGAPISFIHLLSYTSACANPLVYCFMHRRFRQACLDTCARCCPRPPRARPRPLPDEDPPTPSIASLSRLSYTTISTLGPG
In short: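 Bound radioactivity was gamma-counted after rapid GF/B filtration and cold 50 mM Tris-HCl (pH 7.4) washes. The tissue was cerebral cortex from male CD1 mice, prepared as twice-centrifuged membranes in pH 7.2 HEPES/NaCl/KCl/MgCl2/EDTA buffer with bacitracin at 20 mg/ml original wet weight.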

Row | Kb [1] | Ki [2] | Compound
1 | 15.5 nM | 63.1 nM | CCCCC(CC)c1nc(C(=O)Nc2cccc(C(=O)O)c2)c(CCC23CC4CC(CC(C4)C2)C3)[nH]1 (centres unmarked) [Example 124, 3-{[5-(2-Adamantan-1-yl-ethyl)-2-(1-ethyl-pentyl)-1H-imidazole-4-carbonyl]-amino}-benzoic Acid]
2 | 2.29 nM | 105 nM | CCCC(CCC)c1nc(C(=O)Nc2cccc(C(=O)O)c2)c(CCC23CC4CC(CC(C4)C2)C3)[nH]1 [Example 125, 3-{[5-(2-Adamantan-1-yl-ethyl)-2-(1-propyl-butyl)-1H-imidazole-4-carbonyl]-amino}-benzoic Acid]
3 | 15.8 nM | 21.9 nM | CCCC(CCC)c1nc(C(=O)Nc2ccc(C)c(C(=O)O)c2)c(CCC23CC4CC(CC(C4)C2)C3)[nH]1 [Example 126, 5-{[5-(2-Adamantan-1-yl-ethyl)-2-(1-propyl-butyl)-1H-imidazole-4-carbonyl]-amino}-2-methyl-benzoic Acid]
4 | 380 nM | 219 nM | O=C(O)c1cc(NC(=O)c2nc(C3CCCCC3)[nH]c2CCC23CC4CC(CC(C4)C2)C3)cc(C(=O)O)c1 [Example 129, 5-{[5-(2-Adamantan-1-yl-ethyl)-2-cyclohexyl-1H-imidazole-4-carbonyl]-amino}-isophthalic Acid]
5 | 339 nM | 407 nM | Nc1ccc(C(=O)O)cc1NC(=O)c1nc(C2CCCCC2)[nH]c1CCC12CC3CC(CC(C3)C1)C2 [Example 131, 3-{[5-(2-Adamantan-1-yl-ethyl)-2-cyclohexyl-1H-imidazole-4-carbonyl]-amino}-4-amino-benzoic Acid]
6 | 12 nM | 141 nM | CC1(CCc2[nH]c(C3CCCCC3)nc2C(=O)Nc2cccc(C(=O)O)c2)CCCCC1 [Example 133, 3-({2-Cyclohexyl-5-[2-(1-methyl-cyclohexyl)-ethyl]-1H-imidazole-4-carbonyl}-amino)-benzoic Acid]
7 | 148 nM | 4170 nM | O=C(O)c1cccc(NC(=O)c2nc([C@@H]3CCCN3)[nH]c2CCC23CC4CC(CC(C4)C2)C3)c1 [Example 136, (S)-3-{[5-(2-Adamantan-1-yl-ethyl)-2-pyrrolidin-2-yl-1H-imidazole-4-carbonyl]-amino}-benzoic Acid]
8 | 5.13 nM | 324 nM | CN1CCC[C@H]1c1nc(C(=O)Nc2cccc(C(=O)O)c2)c(CCC23CC4CC(CC(C4)C2)C3)[nH]1 [Example 137, (S)-3-{[5-(2-Adamantan-1-yl-ethyl)-2-(1-methyl-pyrrolidin-2-yl)-1H-imidazole-4-carbonyl]-amino}-benzoic Acid]
9 | 25.7 nM | 50.1 nM | Cc1ccc(NC(=O)c2nc([C@@H]3CCCN3C)[nH]c2CCC23CC4CC(CC(C4)C2)C3)cc1C(=O)O [Example 138, (S)-5-{[5-(2-Adamantan-1-yl-ethyl)-2-(1-methyl-pyrrolidin-2-yl)-1H-imidazole-4-carbonyl]-amino}-2-methyl-benzoic Acid]
10 | 60.3 nM | 191 nM | CN1CCC[C@@H]1c1nc(C(=O)Nc2cccc(C(=O)O)c2)c(CCC23CC4CC(CC(C4)C2)C3)[nH]1 [Example 143]
11 | 14.1 nM | 437 nM | CC(C)CN1CCC[C@@H]1c1nc(C(=O)Nc2cccc(C(=O)O)c2)c(CCC23CC4CC(CC(C4)C2)C3)[nH]1 [Example 144, (R)-3-{[5-(2-Adamantan-1-yl-ethyl)-2-[1-(2-methyl-propyl)-pyrrolidin-2-yl]-1H-imidazole-4-carbonyl]-amino}-benzoic Acid]
12 | 51.3 nM | 151 nM | O=C(O)c1cccc(NC(=O)c2nc(-c3ccc(Cl)cc3Cl)[nH]c2CCC23CC4CC(CC(C4)C2)C3)c1 [Example 146, 3-{[5-(2-Adamantan-1-yl-ethyl)-2-(2,4-dichlorophenyl)-1H-imidazole-4-carbonyl]-amino}-benzoic Acid]
13 | 53.7 nM | 102 nM | O=C(O)c1cccc(NC(=O)c2nc(-c3c(Cl)cccc3Cl)[nH]c2CCC23CC4CC(CC(C4)C2)C3)c1 [Example 148, 3-{[5-(2-Adamantan-1-yl-ethyl)-2-(2,6-dichlorophenyl)-1H-imidazole-4-carbonyl]-amino}-benzoic Acid]
14 | 646 nM | 145 nM | Cc1ccc(NC(=O)c2nc(-c3cccc(Cl)c3Cl)[nH]c2CCC23CC4CC(CC(C4)C2)C3)cc1C(=O)O [Example 150, 5-{[5-(2-Adamantan-1-yl-ethyl)-2-(2,3-dichlorophenyl)-1H-imidazole-4-carbonyl]-amino}-2-methyl-benzoic Acid]
15 | 21.9 nM | 6.31 nM | Cc1ccc(-c2nc(C(=O)Nc3ccc(C)c(C(=O)O)c3)c(CCC34CC5CC(CC(C5)C3)C4)[nH]2)c(C)c1 [Example 151, 5-{[5-(2-Adamantan-1-yl-ethyl)-2-(2,4-dimethyl-phenyl)-1H-imidazole-4-carbonyl]-amino}-2-methyl-benzoic Acid]
16 | 11.5 nM | 10.5 nM | Cc1ccc(NC(=O)c2nc(-c3ccc(F)cc3F)[nH]c2CCC23CC4CC(CC(C4)C2)C3)cc1C(=O)O [Example 152, 5-{[5-(2-Adamantan-1-yl-ethyl)-2-(2,4-difluoro-phenyl)-1H-imidazole-4-carbonyl]-amino}-2-methyl-benzoic Acid]
17 | 57.5 nM | 4.9 nM | Cc1ccc(NC(=O)c2nc(-c3c(C)cccc3C)[nH]c2CCC23CC4CC(CC(C4)C2)C3)cc1C(=O)O [Example 153, 5-{[5-(2-Adamantan-1-yl-ethyl)-2-(2,6-dimethyl-phenyl)-1H-imidazole-4-carbonyl]-amino}-2-methyl-benzoic Acid]
18 | 8.71 nM | 24.5 nM | Cc1cc(C)c(-c2nc(C(=O)Nc3cccc(C(=O)O)c3)c(CCC34CC5CC(CC(C5)C3)C4)[nH]2)c(C)c1 [Example 154, 3-{[5-(2-Adamantan-1-yl-ethyl)-2-(2,4,6-trimethyl-phenyl)-1H-imidazole-4-carbonyl]-amino}-benzoic Acid]
19 | 105 nM | 759 nM | CCc1ccccc1-c1nc(C(=O)Nc2cccc(C(=O)O)c2)c(CCC23CC4CC(CC(C4)C2)C3)[nH]1 [Example 158, 3-{[5-(2-Adamantan-1-yl-ethyl)-2-(2-ethyl-phenyl)-1H-imidazole-4-carbonyl]-amino}-benzoic Acid]
20 | 316 nM | 12.3 nM | CCc1ccccc1-c1nc(C(=O)Nc2ccc(C)c(C(=O)O)c2)c(CCC23CC4CC(CC(C4)C2)C3)[nH]1 [Example 159, 5-{[5-(2-Adamantan-1-yl-ethyl)-2-(2-ethyl-phenyl)-1H-imidazole-4-carbonyl]-amino}-2-methyl-benzoic Acid]
21 | 81.3 nM | 38.9 nM | Cc1ccc(NC(=O)c2nc(-c3ccccc3C)n(C)c2CCC23CC4CC(CC(C4)C2)C3)cc1C(=O)O [Example 161, 5-{[5-(2-Adamantan-1-yl-ethyl)-1-methyl-2-o-tolyl-1H-imidazole-4-carbonyl]-amino}-2-methyl-benzoic Acid]
22 | 123 nM | 1820 nM | Cc1ccccc1-c1nc(C(=O)Nc2cccc(C(=O)O)c2)c(CC2CCCCCC2)[nH]1 [Example 165, 3-[(5-Cycloheptylmethyl-2-o-tolyl-1H-imidazole-4-carbonyl)-amino]-benzoic Acid]
23 | 12.9 nM | 135 nM | O=C(O)c1cccc(NC(=O)c2nc(C3CCCCC3)[nH]c2CCC2CCCCCC2)c1 [Example 166, 3-{[5-(2-Cycloheptyl-ethyl)-2-cyclohexyl-1H-imidazole-4-carbonyl]-amino}-benzoic Acid]
24 | 13.8 nM | 28.2 nM | Cc1ccc(NC(=O)c2nc(C3CCCCC3)[nH]c2CCC2CCCCCC2)cc1C(=O)O [Example 167, 5-{[5-(2-Cycloheptyl-ethyl)-2-cyclohexyl-1H-imidazole-4-carbonyl]-amino}-2-methyl-benzoic Acid]

Row | Compound | Kb [1] | Ki [2]
25 | Cc1ccc(NC(=O)c2nc(C3CCCCC3)[nH]c2CCC23CC4CC(CC(C4)C2)C3)cc1C(=O)O [Example 135, 5-{[5-(2-Adamantan-1-yl-ethyl)-2-cyclohexyl-1H-imidazole-4-carbonyl]-amino}-2-methyl-benzoic Acid] | 22.4 nM | 6.17 nM
